Patent publication US8283361B2 (AstraZeneca AB, priority 2008, dated 2012)

Molecular target: S. aureus GyrB ATPase (Staphylococcus aureus, UniProt P0A0K8)
Test: biochemical
Settings: compound at 1 μM; one value per test if tested more than once; 1 µM
Summary of the method: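 IC50 values derive from 10-point titrations of compound (in DMSO). Phosphate formed from 250 μM ATP was quantified by acidic molybdate/malachite green after quenching.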

Chain of S. aureus GyrB ATPase (P0A0K8 whole entry): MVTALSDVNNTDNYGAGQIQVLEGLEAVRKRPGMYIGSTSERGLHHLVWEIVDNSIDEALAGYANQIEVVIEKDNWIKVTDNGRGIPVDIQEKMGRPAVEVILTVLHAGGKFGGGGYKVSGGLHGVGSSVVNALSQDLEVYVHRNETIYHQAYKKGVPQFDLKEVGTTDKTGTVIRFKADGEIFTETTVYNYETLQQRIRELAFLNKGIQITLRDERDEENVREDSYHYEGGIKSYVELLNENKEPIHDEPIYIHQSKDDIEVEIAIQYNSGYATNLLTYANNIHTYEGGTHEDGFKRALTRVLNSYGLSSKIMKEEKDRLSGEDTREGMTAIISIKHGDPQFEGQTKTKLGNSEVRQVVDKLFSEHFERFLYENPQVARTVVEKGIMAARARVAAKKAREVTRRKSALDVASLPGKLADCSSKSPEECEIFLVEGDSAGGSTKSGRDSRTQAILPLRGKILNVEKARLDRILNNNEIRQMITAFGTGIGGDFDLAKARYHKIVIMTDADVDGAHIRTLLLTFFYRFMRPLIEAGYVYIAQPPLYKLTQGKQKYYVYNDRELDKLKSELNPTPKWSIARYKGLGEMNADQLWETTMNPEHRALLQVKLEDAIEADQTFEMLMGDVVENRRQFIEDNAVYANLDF
Chain of S. aureus GyrB ATPase (P0AES4 whole entry, further chain): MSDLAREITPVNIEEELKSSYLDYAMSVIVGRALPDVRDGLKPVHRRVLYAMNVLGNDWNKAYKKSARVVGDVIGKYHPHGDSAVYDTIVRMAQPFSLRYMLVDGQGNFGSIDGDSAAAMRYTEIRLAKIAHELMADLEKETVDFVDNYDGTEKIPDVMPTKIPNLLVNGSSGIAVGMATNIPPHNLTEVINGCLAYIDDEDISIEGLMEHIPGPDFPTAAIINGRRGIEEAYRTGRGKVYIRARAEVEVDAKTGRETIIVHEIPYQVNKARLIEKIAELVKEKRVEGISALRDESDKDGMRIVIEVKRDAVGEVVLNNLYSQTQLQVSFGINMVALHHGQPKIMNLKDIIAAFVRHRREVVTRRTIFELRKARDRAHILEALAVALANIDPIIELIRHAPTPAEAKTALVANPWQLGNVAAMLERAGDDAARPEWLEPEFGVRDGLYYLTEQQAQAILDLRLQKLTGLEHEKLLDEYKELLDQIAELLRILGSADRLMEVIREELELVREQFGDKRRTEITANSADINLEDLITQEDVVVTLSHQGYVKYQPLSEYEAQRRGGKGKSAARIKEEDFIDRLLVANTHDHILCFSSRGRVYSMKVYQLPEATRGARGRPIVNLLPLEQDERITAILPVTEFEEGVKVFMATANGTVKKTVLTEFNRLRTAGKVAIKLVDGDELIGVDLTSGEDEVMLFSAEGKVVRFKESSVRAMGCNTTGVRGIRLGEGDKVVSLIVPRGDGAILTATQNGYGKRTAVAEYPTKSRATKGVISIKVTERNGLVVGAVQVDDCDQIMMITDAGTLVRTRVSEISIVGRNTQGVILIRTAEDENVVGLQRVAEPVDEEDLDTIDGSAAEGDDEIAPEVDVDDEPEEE

| Structure (SMILES) | % Inhibition of S. aureus GyrB ATPase [%] |
| --- | --- |
| CCCNC(=O)Nc1cc(-c2nc(C(F)(F)F)cs2)c(-c2ccc3c(c2)c(=O)c(C(=O)O)cn3CCN(C)C)cn1 [Example 152, 1-(2-(dimethylamino)ethyl)-4-oxo-6-(6-(3-propylureido)-4-(4-(trifluoromethyl)thiazol-2-yl)pyridin-3-yl)-1,4-dihydroquinoline-3-carboxylic acid] | 106 |

Same assay, conditions: compound at 1 μM; one value per test if tested more than once; read-out: % Inhibition of S. aureus GyrB ATPase

| Structure (SMILES) | inhibition at 1 µM [%] |
| --- | --- |
| CCNC(=O)Nc1cc(-c2nc(C(F)(F)F)cs2)c(-c2ccc3c(c2)c(=O)c(C(=O)NCCCO)cn3C(COC)COC)cn1 [Example 149, 1-(1,3-dimethoxypropan-2-yl)-6-(6-(3-ethylureido)-4-(4-(trifluoromethyl)thiazol-2-yl)pyridin-3-yl)-N-(3-hydroxypropyl)-4-oxo-1,4-dihydroquinoline-3-carboxamide] | 93 |
| CCCNC(=O)Nc1cc(-c2nc(C(F)(F)F)cs2)c(-c2ccc3c(c2)c(=O)c(C(=O)O)cn3CCN(C)C)cn1 [Example 152, 1-(2-(dimethylamino)ethyl)-4-oxo-6-(6-(3-propylureido)-4-(4-(trifluoromethyl)thiazol-2-yl)pyridin-3-yl)-1,4-dihydroquinoline-3-carboxylic acid] | 95 |
| CCCNC(=O)Nc1cc(-c2nc(C(F)(F)F)cs2)c(-c2ccc3c(c2)c(=O)c(C(=O)O)cn3C2CN(C)C2)cn1 [Example 153, 1-(1-methylazetidin-3-yl)-4-oxo-6-(6-(3-propylureido)-4-(4-(trifluoromethyl)thiazol-2-yl)pyridin-3-yl)-1,4-dihydroquinoline-3-carboxylic acid] | 105 |
| CCCNC(=O)Nc1cc(-c2nc(C(F)(F)F)cs2)c(-c2ccc3c(c2)c(=O)c(C(=O)N2CCN(S(=O)(=O)N(C)C)CC2)cn3CCN(C)C)cn1 [Example 154, 4-(1-(2-(dimethylamino)ethyl)-4-oxo-6-(6-(3-propylureido)-4-(4-(trifluoromethyl)thiazol-2-yl)pyridin-3-yl)-1,4-dihydroquinoline-3-carbonyl)-N,N-dimethylpiperazine-1-sulfonamide] | 107 |
| CCNC(=O)Nc1cc(-c2nc(C(F)(F)F)cs2)c(-c2ccc3c(c2)c(=O)c(C(=O)N2CCN(C)CC2)cn3CCN(C)C)cn1 [Example 155, 1-(5-(1-(2-(dimethylamino)ethyl)-3-(4-methylpiperazine-1-carbonyl)-4-oxo-1,4-dihydroquinolin-6-yl)-4-(4-(trifluoromethyl)thiazol-2-yl)pyridin-2-yl)-3-ethylurea] | 94 |
| CCCNC(=O)Nc1cc(-c2nc(C(F)(F)F)cs2)c(-c2ccc3c(c2)c(=O)c(C(=O)N2CCN(C)CC2)cn3CCN(C)C)cn1 [Example 156, 1-(5-(1-(2-(dimethylamino)ethyl)-3-(4-methylpiperazine-1-carbonyl)-4-oxo-1,4-dihydroquinolin-6-yl)-4-(4-(trifluoromethyl)thiazol-2-yl)pyridin-2-yl)-3-propylurea] | 105 |
| CCCNC(=O)Nc1cc(-c2nc(C(F)(F)F)cs2)c(-c2ccc3c(c2)c(=O)c(C(=O)N2CCN(S(C)(=O)=O)CC2)cn3CCN(C)C)cn1 [Example 157, 1-(5-(1-(2-(dimethylamino)ethyl)-3-(4-(methylsulfonyl)piperazine-1-carbonyl)-4-oxo-1,4-dihydroquinolin-6-yl)-4-(4-(trifluoromethyl)thiazol-2-yl)pyridin-2-yl)-3-propylurea] | 103 |
| CCNC(=O)Nc1cc(-c2nc(C(F)(F)F)cs2)c(-c2ccc3c(c2)c(=O)c(C(=O)N2CCNCC2)cn3CCN(C)C)cn1 [Example 158, 1-(5-(1-(2-(dimethylamino)ethyl)-4-oxo-3-(piperazine-1-carbonyl)-1,4-dihydroquinolin-6-yl)-4-(4-(trifluoromethyl)thiazol-2-yl)pyridin-2-yl)-3-ethylurea] | 106 |
| CCNC(=O)Nc1cc(-c2nc(C(F)(F)F)cs2)c(-c2ccc3c(c2)c(=O)c(C(=O)N2CCN(S(=O)(=O)N(C)C)CC2)cn3CCN(C)C)cn1 [Example 159, 4-(1-(2-(dimethylamino)ethyl)-6-(6-(3-ethylureido)-4-(4-(trifluoromethyl)thiazol-2-yl)pyridin-3-yl)-4-oxo-1,4-dihydroquinoline-3-carbonyl)-N,N-dimethylpiperazine-1-sulfonamide] | 105 |
| CCCNC(=O)Nc1cc(-c2nc(C(F)(F)F)cs2)c(-c2ccc3c(c2)c(=O)c(C(=O)N2CCN(C(C)=O)CC2)cn3CCN(C)C)cn1 [Example 160, 1-(5-(3-(4-acetylpiperazine-1-carbonyl)-1-(2-(dimethylamino)ethyl)-4-oxo-1,4-dihydroquinolin-6-yl)-4-(4-(trifluoromethyl)thiazol-2-yl)pyridin-2-yl)-3-propylurea] | 103 |
| CCCNC(=O)Nc1cc(-c2nc(C(F)(F)F)cs2)c(-c2ccc3c(c2)c(=O)c(C(=O)N2CCNCC2)cn3CCN(C)C)cn1 [Example 161, 1-(5-(1-(2-(dimethylamino)ethyl)-4-oxo-3-(piperazine-1-carbonyl)-1,4-dihydroquinolin-6-yl)-4-(4-(trifluoromethyl)thiazol-2-yl)pyridin-2-yl)-3-propylurea] | 101 |
| CCNC(=O)Nc1cc(-c2nc(C(F)(F)F)cs2)c(-c2ccc3c(c2)c(=O)c(C(=O)N2CCN(C(C)=O)CC2)cn3CCN(C)C)cn1 [Example 162, 1-(5-(3-(4-acetylpiperazine-1-carbonyl)-1-(2-(dimethylamino)ethyl)-4-oxo-1,4-dihydroquinolin-6-yl)-4-(4-(trifluoromethyl)thiazol-2-yl)pyridin-2-yl)-3-ethylurea] | 106 |
| CCNC(=O)Nc1cc(-c2nc(C(F)(F)F)cs2)c(-c2ccc3c(c2)c(=O)c(C(=O)N2CCN(S(C)(=O)=O)CC2)cn3C2CN(C)C2)cn1 [Example 163, 1-ethyl-3-(5-(1-(1-methylazetidin-3-yl)-3-(4-(methylsulfonyl)piperazine-1-carbonyl)-4-oxo-1,4-dihydroquinolin-6-yl)-4-(4-(trifluoromethyl)thiazol-2-yl)pyridin-2-yl)urea] | 106 |
| CCCNC(=O)Nc1cc(-c2nc(C(F)(F)F)cs2)c(-c2ccc3c(c2)c(=O)c(C(=O)N2CCN(S(=O)(=O)N(C)C)CC2)cn3C2CN(C)C2)cn1 [Example 164, N,N-dimethyl-4-(1-(1-methylazetidin-3-yl)-4-oxo-6-(6-(3-propylureido)-4-(4-(trifluoromethyl)thiazol-2-yl)pyridin-3-yl)-1,4-dihydroquinoline-3-carbonyl)piperazine-1-sulfonamide] | 107 |
| CCNC(=O)Nc1cc(-c2nc(C(F)(F)F)cs2)c(-c2ccc3c(c2)c(=O)c(C(=O)N2CCN(S(=O)(=O)N(C)C)CC2)cn3C2CN(C)C2)cn1 [Example 165, 4-(6-(6-(3-ethylureido)-4-(4-(trifluoromethyl)thiazol-2-yl)pyridin-3-yl)-1-(1-methylazetidin-3-yl)-4-oxo-1,4-dihydroquinoline-3-carbonyl)-N,N-dimethylpiperazine-1-sulfonamide] | 109 |
| CCCNC(=O)Nc1cc(-c2nc(C(F)(F)F)cs2)c(-c2ccc3c(c2)c(=O)c(C(=O)N2CCNCC2)cn3C2CN(C)C2)cn1 [Example 166, 1-(5-(1-(1-methylazetidin-3-yl)-4-oxo-3-(piperazine-1-carbonyl)-1,4-dihydroquinolin-6-yl)-4-(4-(trifluoromethyl)thiazol-2-yl)pyridin-2-yl)-3-propylurea] | 104 |
| CCNC(=O)Nc1cc(-c2nc(C(F)(F)F)cs2)c(-c2ccc3c(c2)c(=O)c(C(=O)N2CCN(C)CC2)cn3C2CN(C)C2)cn1 [Example 167, 1-ethyl-3-(5-(1-(1-methylazetidin-3-yl)-3-(4-methylpiperazine-1-carbonyl)-4-oxo-1,4-dihydroquinolin-6-yl)-4-(4-(trifluoromethyl)thiazol-2-yl)pyridin-2-yl)urea] | 109 |
| CCCNC(=O)Nc1cc(-c2nc(C(F)(F)F)cs2)c(-c2ccc3c(c2)c(=O)c(C(=O)N2CCN(C(C)=O)CC2)cn3C2CN(C)C2)cn1 [Example 168, 1-(5-(3-(4-acetylpiperazine-1-carbonyl)-1-(1-methylazetidin-3-yl)-4-oxo-1,4-dihydroquinolin-6-yl)-4-(4-(trifluoromethyl)thiazol-2-yl)pyridin-2-yl)-3-propylurea] | 102 |
| CCNC(=O)Nc1cc(-c2nc(C(F)(F)F)cs2)c(-c2ccc3c(c2)c(=O)c(C(=O)N2CCN(C(C)=O)CC2)cn3C2CN(C)C2)cn1 [Example 169, 1-(5-(3-(4-acetylpiperazine-1-carbonyl)-1-(1-methylazetidin-3-yl)-4-oxo-1,4-dihydroquinolin-6-yl)-4-(4-(trifluoromethyl)thiazol-2-yl)pyridin-2-yl)-3-ethylurea] | 105 |
| CCCNC(=O)Nc1cc(-c2nc(C(F)(F)F)cs2)c(-c2ccc3c(c2)c(=O)c(C(=O)N2CCN(S(C)(=O)=O)CC2)cn3C2CN(C)C2)cn1 [Example 170, 1-(5-(1-(1-methylazetidin-3-yl)-3-(4-(methylsulfonyl)piperazine-1-carbonyl)-4-oxo-1,4-dihydroquinolin-6-yl)-4-(4-(trifluoromethyl)thiazol-2-yl)pyridin-2-yl)-3-propylurea] | 102 |
| CCNC(=O)Nc1cc(-c2nc(C(F)(F)F)cs2)c(-c2ccc3c(c2)c(=O)c(C(=O)N2CCNCC2)cn3C2CN(C)C2)cn1 [Example 171, 1-ethyl-3-(5-(1-(1-methylazetidin-3-yl)-4-oxo-3-(piperazine-1-carbonyl)-1,4-dihydroquinolin-6-yl)-4-(4-(trifluoromethyl)thiazol-2-yl)pyridin-2-yl)urea] | 112 |
| CCCNC(=O)Nc1cc(-c2nc(C(F)(F)F)cs2)c(-c2ccc3c(c2)c(=O)c(C(=O)N2CCN(C)CC2)cn3C2CN(C)C2)cn1 [Example 172, 1-(5-(1-(1-methylazetidin-3-yl)-3-(4-methylpiperazine-1-carbonyl)-4-oxo-1,4-dihydroquinolin-6-yl)-4-(4-(trifluoromethyl)thiazol-2-yl)pyridin-2-yl)-3-propylurea] | 107 |
| CC(C)NC(=O)Nc1cc(-c2nc(C(F)(F)F)cs2)c(-c2ccc3c(c2)c(=O)c(C(=O)O)cn3CCN(C)C)cn1 [Example 189, 1-(2-(dimethylamino)ethyl)-7-(6-(3-isopropylureido)-4-(4-(trifluoromethyl)thiazol-2-yl)pyridin-3-yl)-4-oxo-1,4-dihydroquinoline-3-carboxylate] | 100 |
